Experimental data from PubChem BioAssay AID2605 (Johns Hopkins Ion Channel Center, 2010).

Molecular target: Voltage-gated inwardly rectifying potassium channel KCNH2 (Homo sapiens) (UniProt Q12809)
Assay: compounds reversing dofetilide inhibition of hERG current – manual patch clamp, HEK293 cells, confirmation (AID 2605)
Details: dofetilide rescue, at 10 µM, stronger effect = higher value; for potentiation: measured here: hERG potentiation without dofetilide

Voltage-gated inwardly rectifying potassium channel KCNH2 (Homo sapiens), sequence (Q12809 whole entry, looked up): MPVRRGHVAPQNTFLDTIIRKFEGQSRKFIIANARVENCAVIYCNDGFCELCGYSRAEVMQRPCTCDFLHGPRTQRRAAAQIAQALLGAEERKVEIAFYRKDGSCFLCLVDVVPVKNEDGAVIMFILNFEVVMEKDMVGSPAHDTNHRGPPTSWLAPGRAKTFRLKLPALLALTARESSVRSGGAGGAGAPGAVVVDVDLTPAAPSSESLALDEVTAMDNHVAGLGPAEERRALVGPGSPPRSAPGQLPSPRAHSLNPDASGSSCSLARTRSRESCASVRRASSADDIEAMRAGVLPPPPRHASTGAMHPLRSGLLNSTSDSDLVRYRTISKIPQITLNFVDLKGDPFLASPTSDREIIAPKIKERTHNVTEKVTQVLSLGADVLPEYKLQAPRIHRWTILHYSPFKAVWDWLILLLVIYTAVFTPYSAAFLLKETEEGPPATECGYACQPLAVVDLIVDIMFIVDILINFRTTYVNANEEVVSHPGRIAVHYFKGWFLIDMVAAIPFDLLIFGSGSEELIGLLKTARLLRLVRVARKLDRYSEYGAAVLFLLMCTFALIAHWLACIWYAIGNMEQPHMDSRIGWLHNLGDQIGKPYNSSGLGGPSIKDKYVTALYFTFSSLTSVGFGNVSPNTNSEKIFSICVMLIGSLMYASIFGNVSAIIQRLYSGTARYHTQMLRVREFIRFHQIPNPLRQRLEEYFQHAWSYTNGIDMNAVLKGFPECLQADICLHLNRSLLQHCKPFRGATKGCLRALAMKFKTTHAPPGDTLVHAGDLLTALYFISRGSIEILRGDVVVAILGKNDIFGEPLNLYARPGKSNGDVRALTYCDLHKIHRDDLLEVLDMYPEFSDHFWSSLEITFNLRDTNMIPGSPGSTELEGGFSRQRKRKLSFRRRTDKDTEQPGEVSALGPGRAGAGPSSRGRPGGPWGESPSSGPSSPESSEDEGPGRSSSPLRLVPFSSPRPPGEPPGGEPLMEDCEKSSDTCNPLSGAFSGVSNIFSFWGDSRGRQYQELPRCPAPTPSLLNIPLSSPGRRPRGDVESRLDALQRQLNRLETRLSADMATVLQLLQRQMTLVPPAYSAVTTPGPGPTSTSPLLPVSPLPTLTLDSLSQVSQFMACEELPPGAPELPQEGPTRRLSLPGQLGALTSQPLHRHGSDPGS

Compound | current remaining with dofetilide [%] | potentiation [%]
CCC1CCCCN1C(=S)NC(=O)c1cccs1 (stereo not given) | 46.5 | 140
Cc1ccc(NC(=S)c2nc3ccccc3s2)cc1 | 23.9 | 107
Cc1cccc(NC(=S)NC(=O)c2cc(-c3ccccc3)nc3ccccc23)c1 | 32.2 | 107
O=C1C2CC=CCC2C(=O)N1c1ccc(Cc2ccncc2)cc1 (stereo not given) | 33.8 | 107
O=C(NC(=S)Nc1ccccc1)c1cc(-c2ccccc2)nc2ccccc12 | 31 | 119
